Laboratory results from patent US20250230147A1, “LACTAMS AS CBL-B INHIBITORS” (Genentech, Inc., priority 2021, published 2025).
Where a name gives a salt, the structure may show the parent alone.

Key:
[1] = biological target: c-Cbl (Homo sapiens (Human), UniProt P22681); experiment: C-Cbl LCK Ub TR-FRET assay (c-cbl Lck HTRF); assay type: biochemical; details: for (fold-selectivity): C-cbl Lck HTRF IC50 relative to Cbl-b Lck HTRF IC50
Procedure, shortened: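 Detection reagents added, brief spin, 20 min RT. IC50 fit normalized to no-LCK (low) and DMSO (high) controls.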

[2] = biological target: Cbl-b (Homo sapiens (Human), UniProt Q13191); experiment: Cbl-b LCK Ub TR-FRET assay (Cbl-b Lck HTRF); assay type: biochemical
Procedure, shortened: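 Biotin-Cbl-b preincubated with compound (10-point 3-fold series) 60 min, then His-LCK with 1 mM ATP (2× mixture) added for 90 min at room temperature. Ubiquitination detected by TR-FRET using HA-ubiquitin/UBE2D2 adduct, anti-HA-D2 and streptavidin-Eu; IC50 normalised to no-LCK and DMSO controls.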

Sequence of c-Cbl (P22681 47-435): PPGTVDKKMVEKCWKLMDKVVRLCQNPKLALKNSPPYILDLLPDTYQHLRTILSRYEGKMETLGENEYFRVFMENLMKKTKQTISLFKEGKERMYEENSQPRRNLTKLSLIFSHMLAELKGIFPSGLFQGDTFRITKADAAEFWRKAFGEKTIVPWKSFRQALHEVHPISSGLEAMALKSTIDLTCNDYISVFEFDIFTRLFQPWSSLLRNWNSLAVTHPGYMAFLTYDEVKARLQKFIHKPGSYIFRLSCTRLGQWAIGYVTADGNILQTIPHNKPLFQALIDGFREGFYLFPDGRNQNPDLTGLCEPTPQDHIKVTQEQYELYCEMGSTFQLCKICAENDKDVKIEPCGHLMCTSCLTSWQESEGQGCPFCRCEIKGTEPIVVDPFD
Sequence of Cbl-b (Q13191 40-426): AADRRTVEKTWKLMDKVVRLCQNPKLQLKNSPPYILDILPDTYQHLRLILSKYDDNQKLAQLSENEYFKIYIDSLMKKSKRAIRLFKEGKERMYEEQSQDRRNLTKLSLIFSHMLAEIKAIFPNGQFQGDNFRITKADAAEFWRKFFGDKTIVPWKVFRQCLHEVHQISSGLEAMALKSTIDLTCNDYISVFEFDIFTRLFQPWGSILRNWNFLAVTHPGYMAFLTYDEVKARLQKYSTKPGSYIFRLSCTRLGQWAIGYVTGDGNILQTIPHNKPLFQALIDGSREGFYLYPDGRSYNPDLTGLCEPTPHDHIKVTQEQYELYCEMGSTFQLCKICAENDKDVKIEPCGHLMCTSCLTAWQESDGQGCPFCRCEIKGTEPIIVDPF

IC50 [1] | (fold-selectivity) [1] | IC50 [2] | fold of selectivity ([2]; Cbl-b over c-Cbl, Lck HTRF IC50) | SMILES
180 nM | (1.8x) | 100 nM | – | Cc1cn[nH]c1C(F)C1(c2cccc(N3Cc4c(cc(CN5CCN(C)C[C@@H]5C(C)C)cc4C(F)(F)F)C3=O)c2)COC1 (stereo partly drawn) [Compound 237, 2-(3-(3-(fluoro(4-methyl-1H-pyrazol-5-yl)methyl)oxetan-3-yl)-phenyl)-6-(((S)-2-isopropyl-4-methylpiperazin-1-yl)methyl)-4-(trifluoromethyl)isoindolin-1-one]
190 nM | (1.0x) | 180 nM | – | Cn1cnnc1CC1(c2cc(NCC3CCOCC3)nc(N3Cc4c(cc(CNC5(C)CCC5)cc4C(F)(F)F)C3=O)c2)CCC1 [Compound 335, 2-(4-(1-((4-methyl-4H-1,2,4-triazol-3-yl)methyl)cyclobutyl)-6-(((tetrahydro-2H-pyran-4-yl)methyl)amino)pyridin-2-yl)-6-(((1-methylcyclobutyl)amino)methyl)-4-(trifluoromethyl)isoindolin-1-one]
170 nM | 1.9x | 90 nM | – | Cn1cnnc1[C@H](F)C1(c2cccc(N3Cc4c(cc(CN5CCC(F)(CO)CC5)cc4C(F)(F)F)C3=O)c2)COC1 [Compound 133, (R)-2-(3-(3-(fluoro(4-methyl-4H-1,2,4-triazol-3-yl)methyl)oxetan-3-yl)phenyl)-6-((4-fluoro-4-(hydroxymethyl)piperidin-1-yl)methyl)-4-(trifluoromethyl)isoindolin-1-one]
26 nM | (0.73x) | 35 nM | – | CC[C@@H]1CN(Cc2cc3c(c(C(F)(F)F)c2)CN(c2cccc(C4(Cc5nncn5C)CC(F)(F)C4)c2)C3=O)CCN1 [Compound 426, (R)-2-(3-(3,3-difluoro-1-((4-methyl-4H-1,2,4-triazol-3-yl)methyl)cyclobutyl)phenyl)-6-((3-ethylpiperazin-1-yl)methyl)-4-(trifluoromethyl)isoindolin-1-one]
13 nM | (1.0x) | 13 nM | – | C[C@@H](NC1(C)CCC1)c1cc2c(c(C(F)(F)F)c1)CN(c1cccc(C3(Cc4nncn4C)CC(F)(F)C3)c1)C2=O [Compound 245, (R)-2-(3-(3,3-difluoro-1-((4-methyl-4H-1,2,4-triazol-3-yl)-methyl)cyclobutyl)phenyl)-6-(1-((1-methylcyclobutyl)amino)ethyl)-4-(trifluoromethyl)-isoindolin-1-one]
3100 nM | 2.6x | 1200 nM | – | Cn1cnnc1[C@@H](F)C1(c2cccc(N3Cc4c(cc(CN5CC6CC5C6)cc4C(F)(F)F)C3=O)c2)COC1 [Compound 87, (S)-6-((2-azabicyclo[2.1.1]hexan-2-yl)methyl)-2-(3-(3-(fluoro(4-methyl-4H-1,2,4-triazol-3-yl)methyl)oxetan-3-yl)phenyl)-4-(trifluoromethyl)isoindolin-1-one]
420 nM | (3.7x) | 110 nM | – | CC[C@H](C)Nc1cc(C2(Cc3nncn3C)COC2)cc(N2Cc3c(cccc3C(F)(F)F)C2=O)n1 [Compound 481, (S)-2-(6-(sec-butylamino)-4-(3-((4-methyl-4H-1,2,4-triazol-3-yl)methyl)oxetan-3-yl)pyridin-2-yl)-4-(trifluoromethyl)isoindolin-1-one]
15 nM | (1.0x) | 15 nM | – | Cn1cnnc1C[C@]1(c2cccc(N3Cc4c(cc(CNC5(C)CCC5)cc4C(F)(F)F)C3=O)c2)C[C@@H](C#N)C1 [Compound 468, (1s,3s)-3-((4-methyl-4H-1,2,4-triazol-3-yl)methyl)-3-(3-(6-(((1 - methylcyclobutyl)amino)methyl)-1-oxo-4-(trifluoromethyl)isoindolin-2-yl)phenyl)cyclobutanecarbonitrile]
7.6 nM | (0.56x) | 13 nM | – | CCCNCc1cc2c(c(C(F)(F)F)c1)CN(c1cc(NC(C)C)cc(C3(Cc4nncn4C)CCC3)c1)C2=O [Compound 456, 2-(3-(isopropylamino)-5-(1-((4-methyl-4H-1,2,4-triazol-3-yl)methyl)cyclobutyl)phenyl)-6-((propylamino)methyl)-4-(trifluoromethyl)isoindolin-1-one]
16 nM | (0.77x) | 21 nM | – | Cn1cnnc1CC1(c2cc(Cc3ccccc3)nc(N3Cc4c(cc(CNC5(C)CCC5)cc4C(F)(F)F)C3=O)c2)CCC1 [Compound 241, 2-(6-benzyl-4-(1-((4-methyl-4H-1,2,4-triazol-3-yl)methyl)cyclo-butyl)pyridin-2-yl)-6-(((1-methylcyclobutyl)amino)methyl)-4-(trifluoromethyl)isoindolin-1-one]
39 nM | (0.83x) | 47 nM | – | CC[C@@H]1CC[C@H](c2cc3c(c(C(F)(F)F)c2)CN(c2cccc(C4(Cc5nncn5C)CC(F)(F)C4)c2)C3=O)N1 [Compound 476, 2-(3-(3,3-difluoro-1-((4-methyl-4H-1,2,4-triazol-3-yl)methyl)cyclobutyl)phenyl)-6-((2R,5R)-5-ethylpyrrolidin-2-yl)-4-(trifluoromethyl)isoindolin-1-one]
3000 nM | 13 x | 220 nM | 13.6x | CC(C)[C@H]1CN(CC(F)(F)F)CCN1Cc1cc2c(c(C(F)(F)F)c1)CN(c1cccc(C3([C@H](F)c4nncn4C)COC3)c1)C2=O [Compound 201, 2-(3-(3-((S)-fluoro(4-methyl-4H-1,2,4-triazol-3-yl)methyl)oxetan-3-yl)phenyl)-6-(((S)-2-isopropyl-4-(2,2,2-trifluoroethyl)piperazin-1-yl)methyl)-4-(trifluoromethyl)isoindolin-1-one]
24 nM | 1.2x | 20 nM | – | CC(C)[C@@H]1CN(Cc2cc3c(c(C(F)(F)F)c2)CN(c2cccc(C4([C@@H](F)c5nncn5C)COC4)c2)C3=O)CCN1 [Compound 92]
11 nM | (0.89x) | 12 nM | – | Cn1cnnc1C[C@]1(c2cccc(N3Cc4c(cc(CNC5(C)CCC5)cc4C(F)(F)F)C3=O)c2)C[C@H](C#N)C1 [Compound 467, (1r,3r)-3-((4-methyl-4H-1,2,4-triazol-3-yl)methyl)-3-(3-(6-(((1-methylcyclobutyl)amino)methyl)-1-oxo-4-(trifluoromethyl)isoindolin-2-yl)phenyl)cyclobutanecarbonitrile]
27 nM | (1.2x) | 22 nM | – | Cn1cnnc1CC1(c2cc(NCC(F)(F)CO)nc(N3Cc4c(cc(CNC5(C)CCC5)cc4C(F)(F)F)C3=O)c2)CCC1 [Compound 317, 2-(6-((2,2-difluoro-3-hydroxypropyl)amino)-4-(1-((4-methyl-4H-1,2,4-triazol-3-yl)methyl)cyclobutyl)pyridin-2-yl)-6-(((1-methylcyclobutyl)amino)methyl)-4-(trifluoromethyl)isoindolin-1-one]
320 nM | (0.74x) | 440 nM | – | Cn1cnnc1CC1(c2cc(NCCN3CCOCC3)nc(N3Cc4c(cc(CNC5(C)CCC5)cc4C(F)(F)F)C3=O)c2)CCC1 [Compound 340, 2-(4-(1-((4-methyl-4H-1,2,4-triazol-3-yl)methyl)cyclobutyl)-6-((2-morpholinoethyl)amino)pyridin-2-yl)-6-(((1-methylcyclobutyl)amino)methyl)-4-(trifluoromethyl)isoindolin-1-one]
14 nM | 0.85x | 17 nM | – | Cn1cnnc1CC1(c2cccc(N3Cc4c(cc(CN5CC(C)(O)C5)cc4C(F)(F)F)C3=O)c2)CC(F)(F)C1 [Compound 17, 2-(3-(3,3-difluoro-1-((4-methyl-4H-1,2,4-triazol-3-yl)methyl)cyclo-butyl)phenyl)-6-((3-hydroxy-3-methylazetidin-1-yl)methyl)-4-(trifluoromethyl)isoindolin-1-one]
19500 nM | (3.8x) | 5000 nM | – | Cn1cnnc1CC1(c2cc(NC3CCCC3O)nc(N3Cc4c(cccc4C(F)(F)F)C3=O)c2)COC1 (stereo not drawn) [Compound 489, 2-(6-((2-hydroxycyclopentyl)amino)-4-(3-((4-methyl-4H-1,2,4-triazol-3-yl)methyl)oxetan-3-yl)pyridin-2-yl)-4-(trifluoromethyl)isoindolin-1-one]
43 nM | (0.88x) | 48 nM | – | CN1CCN(Cc2cc3c(c(C(F)(F)F)c2)CN(c2cccc(C4(Cc5nncn5C)CC(F)(F)C4)c2)C3=O)CC1 [Compound 411, 2-(3-(3,3-difluoro-1-((4-methyl-4H-1,2,4-triazol-3-yl)methyl)cyclobutyl)phenyl)-6-((4-methylpiperazin-1-yl)methyl)-4-(trifluoromethyl)isoindolin-1-one]
7.6 nM | (0.66x) | 12 nM | – | Cn1cnnc1CC1(c2cc(-c3ccccc3)nc(N3Cc4c(cc(CNC5(C)CCC5)cc4C(F)(F)F)C3=O)c2)CCC1 [Compound 324, 2-(4-(1-((4-methyl-4H-1,2,4-triazol-3-yl)methyl)cyclobutyl)-6-phenylpyridin-2-yl)-6-(((1-methylcyclobutyl)amino)methyl)-4-(trifluoromethyl)isoindolin-1-one]

SMILES | IC50 [1] | (fold-selectivity) [1] | IC50 [2] | fold of selectivity ([2]; Cbl-b over c-Cbl, Lck HTRF IC50)
Cn1cnnc1CC1(c2cccc(N3Cc4c(cc(CNC56CC(C)(C5)C6)cc4C(F)(F)F)C3=O)c2)CC(F)(F)C1 [Compound 354, 2-(3-(3,3-difluoro-1-((4-methyl-4H-1,2,4-triazol-3-yl)methyl)cyclobutyl)phenyl)-6-(((3-methylbicyclo[1.1.1]pentan-1-yl)amino)methyl)-4-(trifluoromethyl)isoindolin-1-one formate] | 7 nM | – | 13 nM | –
